According to the kinase profiling compilation of Christmann-Franck et al. (2016):
Values joined by “and” are separate entries in the source; they are usually repeats but may differ in a detail not shown here. Equal entries are not always repeated.

Assays:
Experiment in all cases: radiometric filter-binding kinase assay, Kinase HotSpot
Conditions in all cases: compound 0.5 µM; ATP 10 µM
[1] = target: MAPK9 (human) (UniProt P45984)
[2] = target: NTRK1 (human) (UniProt P04629)
[3] = target: NEK2 (human) (UniProt P51955)
[4] = target: NEK1 (human) (UniProt Q96PY6)
[5] = target: NTRK2 (human) (UniProt Q16620)
[6] = target: TLK2 (human) (UniProt Q86UE8)
[7] = target: PTK2 (human) (UniProt Q05397)
[8] = target: SRC (human) (UniProt P12931)
[9] = target: CLK3 (human) (UniProt P49761)
[10] = target: SLK (human) (UniProt Q9H2G2)
[11] = target: MAPK3 (human) (UniProt P27361)
[12] = target: WEE1 (human) (UniProt P30291)
[13] = target: MLTK (human) (UniProt Q9NYL2)
[14] = target: SRMS (human) (UniProt Q9H3Y6)
[15] = target: EPHB2 (human) (UniProt P29323)
[16] = target: MAPKAPK2 (human) (UniProt P49137)
[17] = target: MAPK14 (human) (UniProt Q16539)
[18] = target: CLK4 (human) (UniProt Q9HAZ1)
[19] = target: TTK (human) (UniProt P33981)
[20] = target: PHKG1 (human) (UniProt Q16816)
[21] = target: KIT (human) (UniProt P10721)
[22] = target: BRSK1 (human) (UniProt Q8TDC3)
[23] = target: MYO3B (human) (UniProt Q8WXR4)
[24] = target: PRKG2 (human) (UniProt Q13237)
[25] = target: STK16 (human) (UniProt O75716)
[26] = target: CSNK1A1 (human) (UniProt P48729)
[27] = target: NTRK3 (human) (UniProt Q16288)
[28] = target: GRK4 (human) (UniProt P32298)
[29] = target: PRKD2 (human) (UniProt Q9BZL6)
[30] = target: PLK3 (human) (UniProt Q9H4B4)
[31] = target: PTK6 (human) (UniProt Q13882)
[32] = target: PAK4 (human) (UniProt O96013)
[33] = target: ADRBK2 (human) (UniProt P35626)
[34] = target: PRKCE (human) (UniProt Q02156)
[35] = target: CDK9 CCNT1 (human) (UniProt P50750+O60563)
[36] = target: IRAK4 (human) (UniProt Q9NWZ3)
[37] = target: FGFR3 (human) (UniProt P22607)
[38] = target: AXL (human) (UniProt P30530)
[39] = target: MELK (human) (UniProt Q14680)
[40] = target: LYN (human) (UniProt P07948)
[41] = target: PDGFRB (human) (UniProt P09619)
[42] = target: RPS6KA6 KD1 KD2 (human) (UniProt Q9UK32)

Sequence of LYN (human) (P07948 whole entry, looked up): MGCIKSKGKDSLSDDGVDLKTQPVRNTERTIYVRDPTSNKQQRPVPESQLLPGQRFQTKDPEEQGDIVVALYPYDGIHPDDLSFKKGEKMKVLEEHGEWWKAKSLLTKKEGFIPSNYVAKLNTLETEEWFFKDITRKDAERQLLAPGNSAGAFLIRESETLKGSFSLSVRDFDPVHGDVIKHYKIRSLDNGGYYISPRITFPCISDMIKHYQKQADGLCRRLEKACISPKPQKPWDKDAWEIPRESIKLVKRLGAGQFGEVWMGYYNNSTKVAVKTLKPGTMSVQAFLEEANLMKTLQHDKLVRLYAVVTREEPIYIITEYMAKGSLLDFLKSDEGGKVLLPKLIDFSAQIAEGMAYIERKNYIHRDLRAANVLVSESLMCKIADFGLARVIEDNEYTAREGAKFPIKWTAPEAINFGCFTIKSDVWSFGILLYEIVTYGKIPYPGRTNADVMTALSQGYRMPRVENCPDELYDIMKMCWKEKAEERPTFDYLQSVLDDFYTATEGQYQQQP
Sequence of MAPK9 (human) (P45984 whole entry, looked up): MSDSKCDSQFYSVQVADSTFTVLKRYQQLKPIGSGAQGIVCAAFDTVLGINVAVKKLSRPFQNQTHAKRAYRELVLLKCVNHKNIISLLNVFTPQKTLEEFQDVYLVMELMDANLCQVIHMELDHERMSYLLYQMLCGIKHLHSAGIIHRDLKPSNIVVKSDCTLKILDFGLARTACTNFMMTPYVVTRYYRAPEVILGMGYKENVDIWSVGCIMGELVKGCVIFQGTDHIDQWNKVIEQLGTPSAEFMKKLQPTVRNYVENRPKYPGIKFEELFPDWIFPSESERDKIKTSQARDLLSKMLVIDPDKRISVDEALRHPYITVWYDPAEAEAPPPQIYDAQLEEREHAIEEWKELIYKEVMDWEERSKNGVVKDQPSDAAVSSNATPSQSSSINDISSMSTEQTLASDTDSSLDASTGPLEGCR
Sequence of MAPKAPK2 (human) (P49137 whole entry, looked up): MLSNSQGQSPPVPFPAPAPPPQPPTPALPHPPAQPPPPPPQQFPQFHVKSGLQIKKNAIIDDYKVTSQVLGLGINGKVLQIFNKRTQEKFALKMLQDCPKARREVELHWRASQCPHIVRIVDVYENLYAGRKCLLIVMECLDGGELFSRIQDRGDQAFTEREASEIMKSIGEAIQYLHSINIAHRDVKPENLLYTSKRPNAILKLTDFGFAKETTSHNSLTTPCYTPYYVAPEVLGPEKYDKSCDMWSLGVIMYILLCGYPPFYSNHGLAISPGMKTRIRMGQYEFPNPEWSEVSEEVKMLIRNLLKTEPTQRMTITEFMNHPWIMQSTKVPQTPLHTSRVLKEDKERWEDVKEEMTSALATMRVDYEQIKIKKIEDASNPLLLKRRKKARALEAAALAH
Sequence of KIT (human) (P10721 whole entry, looked up): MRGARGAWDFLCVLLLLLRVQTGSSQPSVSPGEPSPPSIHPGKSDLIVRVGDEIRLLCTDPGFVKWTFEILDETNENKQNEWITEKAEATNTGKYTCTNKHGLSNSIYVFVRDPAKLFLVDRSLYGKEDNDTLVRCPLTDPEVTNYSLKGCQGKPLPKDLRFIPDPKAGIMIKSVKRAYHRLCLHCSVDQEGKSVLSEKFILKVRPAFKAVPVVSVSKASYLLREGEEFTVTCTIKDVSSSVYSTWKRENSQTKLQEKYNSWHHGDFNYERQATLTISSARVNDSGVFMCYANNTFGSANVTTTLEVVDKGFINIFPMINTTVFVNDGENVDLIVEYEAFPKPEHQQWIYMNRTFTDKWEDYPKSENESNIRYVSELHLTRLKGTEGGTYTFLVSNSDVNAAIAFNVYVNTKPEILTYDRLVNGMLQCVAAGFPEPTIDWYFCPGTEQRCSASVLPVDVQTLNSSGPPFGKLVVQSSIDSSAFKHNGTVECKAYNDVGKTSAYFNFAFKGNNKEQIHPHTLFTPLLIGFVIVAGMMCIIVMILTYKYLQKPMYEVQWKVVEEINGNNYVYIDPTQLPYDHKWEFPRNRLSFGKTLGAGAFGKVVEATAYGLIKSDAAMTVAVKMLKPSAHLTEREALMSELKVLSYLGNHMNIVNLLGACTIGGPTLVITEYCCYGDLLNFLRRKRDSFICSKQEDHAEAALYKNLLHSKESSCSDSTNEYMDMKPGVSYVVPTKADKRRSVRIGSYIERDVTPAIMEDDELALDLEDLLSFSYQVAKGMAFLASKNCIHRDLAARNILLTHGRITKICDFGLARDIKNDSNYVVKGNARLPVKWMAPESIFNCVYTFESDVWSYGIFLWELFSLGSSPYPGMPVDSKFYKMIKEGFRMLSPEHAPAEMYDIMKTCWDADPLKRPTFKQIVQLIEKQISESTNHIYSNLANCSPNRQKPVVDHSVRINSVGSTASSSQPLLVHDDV
Sequence of CDK9 CCNT1 (human) (O60563 whole entry, looked up): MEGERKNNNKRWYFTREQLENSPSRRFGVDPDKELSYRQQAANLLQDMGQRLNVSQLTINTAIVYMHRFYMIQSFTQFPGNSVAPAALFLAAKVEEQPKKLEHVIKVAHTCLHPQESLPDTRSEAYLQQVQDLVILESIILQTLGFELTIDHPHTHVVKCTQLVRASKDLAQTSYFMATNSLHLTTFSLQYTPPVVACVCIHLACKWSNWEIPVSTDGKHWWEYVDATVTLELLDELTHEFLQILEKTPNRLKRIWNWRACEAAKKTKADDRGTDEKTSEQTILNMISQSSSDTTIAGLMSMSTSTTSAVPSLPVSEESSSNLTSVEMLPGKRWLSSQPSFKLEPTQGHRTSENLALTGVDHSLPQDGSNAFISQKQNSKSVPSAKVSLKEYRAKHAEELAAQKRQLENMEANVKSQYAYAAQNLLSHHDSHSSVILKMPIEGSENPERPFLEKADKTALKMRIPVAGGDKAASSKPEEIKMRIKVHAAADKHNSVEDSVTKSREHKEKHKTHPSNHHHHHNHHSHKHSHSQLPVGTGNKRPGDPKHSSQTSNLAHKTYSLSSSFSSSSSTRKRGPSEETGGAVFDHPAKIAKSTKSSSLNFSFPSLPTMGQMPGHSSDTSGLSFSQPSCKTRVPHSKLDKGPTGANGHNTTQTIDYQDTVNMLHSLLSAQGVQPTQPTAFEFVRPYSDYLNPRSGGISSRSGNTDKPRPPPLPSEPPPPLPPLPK
Sequence of CDK9 CCNT1 (human) (P50750 whole entry, looked up): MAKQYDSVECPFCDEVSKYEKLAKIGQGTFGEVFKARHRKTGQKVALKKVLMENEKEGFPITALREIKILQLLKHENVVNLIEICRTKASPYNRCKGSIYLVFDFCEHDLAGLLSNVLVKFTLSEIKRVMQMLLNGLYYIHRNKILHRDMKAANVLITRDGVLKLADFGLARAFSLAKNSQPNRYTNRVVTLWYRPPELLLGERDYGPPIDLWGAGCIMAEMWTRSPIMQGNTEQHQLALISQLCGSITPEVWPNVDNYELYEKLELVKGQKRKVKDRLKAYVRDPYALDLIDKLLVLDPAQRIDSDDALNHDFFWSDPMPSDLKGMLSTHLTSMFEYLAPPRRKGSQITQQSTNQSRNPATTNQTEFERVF
Sequence of MYO3B (human) (Q8WXR4 whole entry, looked up): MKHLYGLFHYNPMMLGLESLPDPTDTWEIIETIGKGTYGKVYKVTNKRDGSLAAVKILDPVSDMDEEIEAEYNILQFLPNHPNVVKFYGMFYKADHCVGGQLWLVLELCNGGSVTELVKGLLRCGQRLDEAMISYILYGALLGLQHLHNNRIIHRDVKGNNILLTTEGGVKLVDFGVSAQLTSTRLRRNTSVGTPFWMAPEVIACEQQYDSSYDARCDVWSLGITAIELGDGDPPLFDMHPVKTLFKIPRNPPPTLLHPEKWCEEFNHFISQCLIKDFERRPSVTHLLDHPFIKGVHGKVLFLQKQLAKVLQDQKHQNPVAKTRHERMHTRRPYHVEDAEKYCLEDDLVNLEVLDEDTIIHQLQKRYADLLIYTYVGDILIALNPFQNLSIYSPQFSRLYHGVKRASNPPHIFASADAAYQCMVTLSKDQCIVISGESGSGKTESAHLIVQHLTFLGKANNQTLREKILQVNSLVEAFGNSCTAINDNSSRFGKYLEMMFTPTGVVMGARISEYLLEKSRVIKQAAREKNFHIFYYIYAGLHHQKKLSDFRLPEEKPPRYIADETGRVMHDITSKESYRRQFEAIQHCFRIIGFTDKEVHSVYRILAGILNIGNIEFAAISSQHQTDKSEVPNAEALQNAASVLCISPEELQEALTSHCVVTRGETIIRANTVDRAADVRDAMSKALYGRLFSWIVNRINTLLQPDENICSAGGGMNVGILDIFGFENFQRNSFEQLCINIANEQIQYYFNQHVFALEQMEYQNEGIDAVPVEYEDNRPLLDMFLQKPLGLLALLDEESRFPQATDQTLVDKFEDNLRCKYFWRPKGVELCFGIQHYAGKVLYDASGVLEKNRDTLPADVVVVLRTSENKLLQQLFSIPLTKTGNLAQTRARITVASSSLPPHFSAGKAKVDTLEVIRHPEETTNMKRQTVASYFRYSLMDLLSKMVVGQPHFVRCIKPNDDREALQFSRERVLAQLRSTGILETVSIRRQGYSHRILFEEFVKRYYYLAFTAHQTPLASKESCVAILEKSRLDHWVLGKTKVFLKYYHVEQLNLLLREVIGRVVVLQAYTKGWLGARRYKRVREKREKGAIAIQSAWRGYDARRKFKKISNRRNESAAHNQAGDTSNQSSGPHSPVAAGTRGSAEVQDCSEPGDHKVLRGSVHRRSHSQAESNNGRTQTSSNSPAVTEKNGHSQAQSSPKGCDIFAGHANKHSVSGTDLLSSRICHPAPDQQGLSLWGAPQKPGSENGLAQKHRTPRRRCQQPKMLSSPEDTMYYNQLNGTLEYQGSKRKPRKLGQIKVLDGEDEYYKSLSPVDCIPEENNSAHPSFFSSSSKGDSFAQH

## Cc1[nH]c(/C=C2\C(=O)Nc3ccc(S(=O)(=O)N(C)c4cccc(Cl)c4)cc32)c(C)c1C(=O)N1CCN(C)CC1
[1]
  residual activity: 78%
[2]
  residual activity: 7.81%
[3]
  residual activity: 50.8%
[4]
  residual activity: 23.5%
[5]
  residual activity: 35.7%
[6]
  residual activity: 95.8%
[7]
  residual activity: 96.8%
[8]
  residual activity: 53.3%
[9]
  residual activity: 71.1%
[10]
  residual activity: 13.6%
[11]
  residual activity: 106%
[12]
  residual activity: 81.8%
[13]
  residual activity: 97.4%
[14]
  residual activity: 104%
[15]
  residual activity: 91.8%
[16]
  residual activity: 104%
[17]
  residual activity: 86.2%
[18]
  residual activity: 34.3%
[19]
  residual activity: 90.7%
[20]
  residual activity: 45.2%
[21]
  residual activity: 51.3%
[22]
  residual activity: 101%
[23]
  residual activity: 72.5%
[24]
  residual activity: 104%
[25]
  residual activity: 95.4%
[26]
  residual activity: 79.2%
[27]
  residual activity: 5.93%
[28]
  residual activity: 103%
[29]
  residual activity: 58.3%
[30]
  residual activity: 95%
[31]
  residual activity: 91.3%
[32]
  residual activity: 101%
[33]
  residual activity: 103%
[34]
  residual activity: 99.1%
[35]
  residual activity: 91%
[36]
  residual activity: 65.5%
[37]
  residual activity: 74.1%
[38]
  residual activity: 66.5%
[39]
  residual activity: 78.9%
[40]
  residual activity: 39.1% and 53.3%
[41]
  residual activity: 76.4%
[42]
  residual activity: 67.8%

## Nc1ncnc2[nH]nc(Nc3ccc(F)cc3)c12
[1]
  residual activity: 103%
[2]
  residual activity: 109%
[3]
  residual activity: 89.3%
[4]
  residual activity: 94%
[5]
  residual activity: 101%
[6]
  residual activity: 79%
[7]
  residual activity: 103%
[8]
  residual activity: 89.6%
[9]
  residual activity: 112%
[10]
  residual activity: 99.5%
[11]
  residual activity: 105%
[12]
  residual activity: 93.9%
[13]
  residual activity: 88%
[14]
  residual activity: 104%
[15]
  residual activity: 91.6%
[16]
  residual activity: 105%
[17]
  residual activity: 79.5%
[18]
  residual activity: 88.7%
[19]
  residual activity: 96.1%
[20]
  residual activity: 87.5%
[21]
  residual activity: 93.5%
[22]
  residual activity: 63%
[23]
  residual activity: 87.9%
[24]
  residual activity: 97%
[25]
  residual activity: 108%
[26]
  residual activity: 90.3%
[27]
  residual activity: 81.5%
[28]
  residual activity: 98.8%
[29]
  residual activity: 81.3%
[30]
  residual activity: 98%
[31]
  residual activity: 68.3%
[32]
  residual activity: 104%
[33]
  residual activity: 102%
[34]
  residual activity: 99.5%
[35]
  residual activity: 99.1%
[36]
  residual activity: 88.3%
[37]
  residual activity: 101%
[38]
  residual activity: 45.4%
[39]
  residual activity: 97.7%
[40]
  residual activity: 89.7% and 90.3%
[41]
  residual activity: 98%
[42]
  residual activity: 71.7%
